Experiment [1] has as its target T1, E35D↑G↑S mutant HIV-1 subtype C protease (Human immunodeficiency virus type 1 group M subtype C, UniProt Q994Q3, D118E/E93D/I94G/INS93GS). Kind of experiment: biochemical. As to conditions: for IC50: E35D↑G↑S IC50, mutant E35D↑G↑S, n = 3; for Ki ratio / reduced activity in comparison to the wildtype: mutant versus wild type; for ΔΔG: mutant-wild type; for log vitality: v = (Ki × Kcat/Km)MUT/(Ki × Kcat/Km)WT, wild type as reference; for ΔG (Gibbs free binding energy): calculated from Ki, ΔG=RTlnKi. As to the method: (§1) Enzymatic activity of the HIV-1 C-SA and mutant (E35D↑G↑S) protease was measured by following the hydrolysis of the HIV-PR chromogenic substrate, Lys-Ala-Arg-Val-Nle-nPhe-Glu-Ala-Nle-NH2 as reported before[13]^,[15]. The substrate resembles the conserved protease cleavage site, KARVL/AEAM[8] between the capsid protein and the […] in the Gag-polyprotein precursor. Hydrolysis of the HIV chromogenic substrate was characterised by the decrease in absorbance at 300 nm. Catalytic properties such as the Km, kcat, and kcat/Km of the proteases were determined. All catalytic activity assays were performed using a Jasco V-630 spectrophotometer (Jasco International co., LTD, Japan).
(§2) This was done by monitoring the rate of chromogenic substrate hydrolysis using 2 µM protease in 50.0 mM sodium acetate, 0.1 M NaCl, pH 5.0, and (0–250 µM) substrate in increasing amounts of inhibitor (0–10 nM).
This is done by introducing the term “vitality” which is a measure of resistance. Vitality, v, is defined as v = (Ki × Kcat/Km)MUT/(Ki × Kcat/Km)WT, and predicts the therapeutic effect of a given protease inhibitor.
(§3) The Ki values were estimated using a competitive inhibition equation (Equation 1) according to Williams et al..

In experiment [2] the target is wild type C-SA HIV protease (Human immunodeficiency virus type 1 group M subtype C, UniProt Q994Q3). Kind of experiment: Inhibition of chromogenic substrate hydrolysis by wild type C-SA HIV protease. In kind it is biochemical, HIV-1 subtype C. The conditions noted are these: for IC50: wild type C-SA protease, n = 3, read-out: WT IC50; for Ki / ΔG (Gibbs free binding energy): wild type; for Ki: 37 °C, pH 5.0; for ΔG (Gibbs free binding energy): calculated from Ki, ΔG=RTlnKi. As to the method:
as §1, §2, §3

The target of experiment [3] is T1, E35D↑G↑S mutant HIV-1 subtype C protease. As to conditions: mutant-wild type. As to the method: Quenching experiments were performed according to the method reported by Maseko et al.[15]. Spectrofluorimetry was used to determine structural changes induced in HIV protease by the interaction of the inhibitors with the purified enzymes using Jasco V-630 spectrofluorimeter (Jasco International co., LTD, Japan). The excitation wavelength was fixed at 295 nm, the wavelength at which tryptophan absorbs and the emission wavelength measured was at […]. The change in fluorescence of a solution was monitored over 10 min, as increasing concentrations of inhibitors were added to a reaction mixture of HIV protease in 50 mM sodium acetate, 1 M NaCl, pH 5 in a final volume of […]. All fluorescence quenching experiments were performed at 4 different temperatures (293 K, 298 K, 303 K, 310 K). The following equations are applicable. (1) F0/F=1+KsvQ (2) lnKsv=−(ΔH/RT)+(ΔS/R) where F0 and F are the florescence in the absence and presence of quencher, Ksv is the Stern Volmer constant, Q is the quencher (drug), ΔH is the enthalpy, ΔS is entropy, R is the gas constant and T is the experimental temperature. The equation is developed from Van’t Hoff relationship. (3) ΔG=RTlnKi
Thermodynamic parameters were calculated from the Stern Volmer and Van’t Hoff plots (Figures S3 and S4). From these plots, ΔH and ΔS values for each drug were calculated. ΔG values were calculated from the Ki values from Equation (3).

By IC50 is commonly meant the midpoint of a concentration-inhibition curve. What is called Ki is a measure of affinity in units of concentration, obtained from inhibition or displacement. High values mean lower affinity, low ones higher affinity.

“And” between values parts separate entries of the source, which are not always exact repeats. Identical values can stand only once.

As for `CC(C)(C)NC(=O)[C@@H]1CN(Cc2cccnc2)CCN1C[C@@H](O)C[C@@H](Cc1ccccc1)C(=O)N[C@H]1c2ccccc2C[C@H]1O` [IDV, Indinavir], in experiment [1], the IC50 is 33.6 ± 1 nM, the Ki ratio is recorded as 20 ± 0.5, the ΔΔG is reported as 1.9 ± 0.6 kcal/mol and the log vitality was about 1.00. In addition, the IC50 in experiment [2] is 3.44 ± 0.06 nM. In experiment [3], the ΔΔH is −0.1 ± 0.0 and the “−TΔΔS” value is 1.8 ± 0.3.

Consider `CC(C)(C)NC(=O)[C@@H]1C[C@@H]2CCCC[C@@H]2CN1C[C@@H](O)[C@H](Cc1ccccc1)NC(=O)[C@H](CC(N)=O)NC(=O)c1ccc2ccccc2n1` [SQV, Saquinavir], for which, in experiment [1], the IC50 was found to be 114 ± 1.2 nM, the Ki ratio turned out to be 215 ± 2.0, the ΔΔG amounted to 3.3 ± 0.5 kcal/mol and the log vitality result is on record as “around two”. The concentration for half-maximal inhibition (IC50) in experiment [2] was determined as 0.77 ± 0.05 nM. In experiment [3], the ΔΔH is 2.9 ± 0.1 and the “−TΔΔS” value worked out at 0.4 ± 0.0.

Consider `CC(C)c1nc(CN(C)C(=O)N[C@H](C(=O)N[C@@H](Cc2ccccc2)C[C@H](O)[C@H](Cc2ccccc2)NC(=O)OCc2cncs2)C(C)C)cs1` [RTV, Ritonavir], for which the “ΔG (Gibbs free binding energy)” value in experiment [1] (mutant E35D↑G↑S) is -12.96 kcal/mol. Moreover, in experiment [1], the “reduced activity in comparison to the wildtype” value was 5 folds; the ΔΔG is 0.93 kcal/mol and 0.9 ± 0.1 kcal/mol; the log vitality was determined as 0.30. In addition, in experiment [3], the ΔΔH is 6.8 ± 0.1 and the “−TΔΔS” value was 5.8 ± 0.2.

As to `CCC[C@@]1(CCc2ccccc2)CC(O)=C([C@H](CC)c2cccc(NS(=O)(=O)c3ccc(C(F)(F)F)cn3)c2)C(=O)O1` [TPV, Tipranavir], in experiment [1], the IC50 came out at 203 ± 2.6 nM, the Ki ratio was found to be 292 ± 4.0, the ΔΔG turned out to be 3.7 ± 0.1 kcal/mol and the log vitality entry was “around two”. Further, in experiment [2], the IC50 amounted to 1.55 ± 0.02 nM, the Ki was 0.513 nM and the “ΔG (Gibbs free binding energy)” value is -13.19 kcal/mol. In experiment [3], the ΔΔH was 3.2 ± 0.2 and the “−TΔΔS” value is reported as −7.1 ± 0.1.

As for `COC(=O)N[C@H](C(=O)N[C@@H](Cc1ccccc1)[C@@H](O)CN(Cc1ccc(-c2ccccn2)cc1)NC(=O)[C@@H](NC(=O)OC)C(C)(C)C)C(C)(C)C` [ATV, Atazanavir], in experiment [1], the Ki is 145 nM, half-maximal inhibition (IC50) was put at 685 ± 3 nM, the Ki ratio came out at 1828 ± 2.0 and the ΔΔG is 4.6 ± 0.2 kcal/mol. Besides, the log vitality entry in experiment [1] is recorded as “highest vitality value”. In experiment [2], the IC50 is 1.07 ± 0.08 nM, the Ki is 0.0776 nM and the “ΔG (Gibbs free binding energy)” value is -14.35 kcal/mol. For the same compound, in experiment [3], the ΔΔH was 3.1 ± 0.1 and the “−TΔΔS” value was −1.5 ± 0.1.

Turning to `Cc1cccc(C)c1OCC(=O)N[C@@H](Cc1ccccc1)[C@@H](O)C[C@H](Cc1ccccc1)NC(=O)[C@H](C(C)C)N1CCCNC1=O` [LPV, Lopinavir], in experiment [1], the IC50 amounted to 51.7 ± 0.8 nM, the Ki ratio came to 12 ± 0.1, the ΔΔG came out at 1.6 ± 0.3 kcal/mol and the log vitality is given as about 1.00. Besides, the half-inhibitory concentration (IC50) in experiment [2] was determined as 2.99 ± 0.01 nM. Further, in experiment [3], the ΔΔH was −13.1 ± 0.9 and the “−TΔΔS” value is given as 14.7 ± 0.1.

Take `CC(C)CN(C[C@@H](O)[C@H](Cc1ccccc1)NC(=O)O[C@H]1CO[C@H]2OCC[C@H]21)S(=O)(=O)c1ccc(N)cc1` [DRV, Darunavir]: in experiment [1], the IC50 is 154 ± 2 nM, the Ki ratio was determined as 560 ± 3.0, the ΔΔG is reported as 3.9 ± 0.5 kcal/mol and the log vitality entry is given as “around two”. Further, in experiment [2], the IC50 was 1.07 ± 0.04 nM. In experiment [3], the ΔΔH worked out at 2.1 ± 0.0 and the “−TΔΔS” value was −1.8 ± 0.1.

For `Cc1c(O)cccc1C(=O)N[C@@H](CSc1ccccc1)[C@H](O)CN1C[C@H]2CCCC[C@H]2C[C@H]1C(=O)NC(C)(C)C` [NFV, Nelfinavir], in experiment [1], the affinity, expressed as Ki, was 174 nM; the concentration for half-maximal inhibition (IC50) is 1401 ± 3 nM; the Ki ratio turned out to be 532 ± 2; the ΔΔG was 4.1 ± 0.2 kcal/mol. Besides, the log vitality result in experiment [1] is reported as “around two”. Moreover, the IC50 in experiment [2] amounted to 1.99 ± 0.05 nM. For the same compound, in experiment [3], the ΔΔH worked out at 2.3 ± 0.0 and the “−TΔΔS” value is −1.8 ± 0.0.

As for `CC(C)CN(C[C@@H](O)[C@H](Cc1ccccc1)NC(=O)O[C@H]1CCOC1)S(=O)(=O)c1ccc(N)cc1` [APV, Amprenavir], in experiment [1], the midpoint of inhibition, the IC50, lay at 4.1 ± 0.05 nM; the Ki ratio is 4 ± 0.1; the “reduced activity in comparison to the wildtype” value worked out at 4 folds; the ΔΔG was 0.80 kcal/mol and 0.80 ± 0.1 kcal/mol. This compound also showed a log vitality in experiment [1] of 0.36. Besides, the “ΔG (Gibbs free binding energy)” value in experiment [1] (mutant E35D↑G↑S) was -13.12 kcal/mol. Also, the “log Ki” value in experiment [1] (mutant E35D↑G↑S, logarithm of Ki in nM, 37 °C, pH 5.0) is recorded as “negative”. Further, the IC50 in experiment [2] is 0.81 ± 0.04 nM. In addition, in experiment [3], the ΔΔH is recorded as 12.9 ± 0.8 and the “−TΔΔS” value stood at 12.1 ± 0.2.
